# Tests used:
# [1] = system: renal progenitor cells (lhx1a expression); assay: In situ hybridization for lhx1a expression in 10-somite embryos (renal progenitor cell expansion); assay type: in vivo; details: for lhx1a expansion class, 800 nM: 800 nM from 2 hpf; on lhx1a expansion class, 800 nM: key: effective (+); partially effective (+/−); ineffective (−); Analogs that killed all embryos at a given concentration before reaching 10 somites are listed as XX
# In short: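 Zebrafish embryos treated with compound, then colorimetric whole-mount in situ hybridization for lhx1a mRNA at 10-somite stage (hybridization 65 °C). Percent embryos with expanded kidney field counted manually; EC50 read as the 50% point of the plotted curve.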
# renal progenitor cells = assay: Tg(lhx1a:EGFP) reporter: renal progenitor cell counting; assay type: in vivo, zebrafish
# Procedure: Tg(lhx1a:EGFP)^pt303 embryos were treated with 3 μM PTBA and then fixed in 4% paraformaldehyde in PBS for 8 hours at 4° C. Embryos were washed in PBS containing 0.1% TWEEN 20 (PBT) and incubated in 1 μg/ml DAPI in PBT for 30 minutes at room temperature. Embryos were flat-mounted on glass slides with Cytoseal 60 and imaged with either a Leica M205 FA epifluorescent microscope or an Olympus FluoView 1000 confocal microscope. Confocal projections contained stacks of six 3 μm images. A predefined box was positioned at the most posterior region of the notochord and included the most lateral GFP-positive cell in a kidney field. The cells that were positive for both GFP and DAPI within this box were counted manually with the aid of ImageJ. Variances of the control and PTBA-treated groups were compared by F test and found to be unequal. Therefore, a two-tailed t test with unequal variance was used to determine significance (α=0.05).
# For all second-generation compounds, the cad17:EGFP transgene is used as the primary readout to assay for expansion of kidney field (FIG. 35). PTBA analogues that expand cad17:EGFP expression are subjected to a secondary screen. […] Such compounds are assessed in target efficacy and toxicity assays.
# [2] = system: human HDACs (HeLa cell nuclear extract); assay: Fluorescence histone deacetylation assay with HeLa cell nuclear extract; assay type: biochemical
# [3] = system: pax2a, pax8 expression (kidney field); assay: In situ hybridization for renal progenitor markers pax2a, pax8 / kidney field; assay type: in vivo, zebrafish
# Procedure: (§1) PTBA was synthesized as described below. Hydroxyurea and aphidicolin were obtained from Sigma-Aldrich.
# (§2) In situ hybridization and immunocytochemistry: In situ hybridization was performed as previously described with some modifications. 142 Hybridization temperature was 65° C. Embryos were blocked in 2% blocking reagent (Roche) with 5% sheep serum in MAB (100 mM maleic acid and 150 mM NaCl [pH 7.5]). Whole-mount immunocytochemistry with 1:25 mouse anti-α6F antibody (Developmental Studies Hybridoma Bank) and 1:100 Cy3 secondary antibody (Jackson ImmunoResearch) was performed as described previously. 108 Embryos were embedded in JB-4 for sectioning per the manufacturer's instructions (Polysciences), sectioned at 5 μm, and mounted with Cytoseal 60 (Richard-Allan Scientific).
# [4] = system: conditionally-immortalized mouse podocyte cell line; assay: Podocyte cytotoxicity assay (Cell Titer-Blue); details: 72 hours, up to 30 μM
# Procedure: For the purposes of these experiments, they function as an indicator of renal toxicity. Following 72 hours of treatment with each compound concentrations ranging from 30 μM to 3 nM, podocyte viability was assessed by measuring residual metabolic activity (FIG. 30).
# Mouse podocytes were plated at a density of 6,000 cells per 200 μl in 96-well plates to elicit log-phase growth. The indicated PTBA analogs were added at 30 μM, 10 μM, 1 μM, 300 nM, 100 nM, 30 nM, or 3 nM and incubated at 33° C. for 72 hours. The final DMSO concentration was maintained at 0.2% in all treatments except 30 μM (0.6%). After incubation, cytotoxicity was analyzed using the Cell Titer-Blue Cell Viability Assay (Promega) per manufacturer's instructions. Reagent (20 μl) was added to 100 μl of cells and plates were incubated for 2 hours at 37° C. Fluorescence was read at 79 560Ex/590Em on a Gemini SpectramaxXS (Molecular Devices) plate reader. Viability was calculated as a percentage of the DMSO control, which was considered 100% viability. Data represent the results of three independent experiments using duplicate wells for each condition. E50 values were determined from the transformed and normalized data by non-linear regression.
# histone H4 acetylation = assay: Histone H4 hyperacetylation Western blot in embryos; assay type: in vivo, zebrafish; details: 24 hpf embryos treated 6 hours; 3 μM PTBA, 25 μM PBA, 200 nM TSA
# Procedure: It was next determined whether the HDACi function of PTBA was quantifiable in vivo. 24 hpf embryos were treated with 3 μM PTBA, 25 μM PBA, or 200 nM TSA for 6 hours. Protein extracts were prepared and immunoblotted with an anti-hyperacetylated histone H4 antibody. […] Furthermore, increasing the compound concentration caused a corresponding increase in hyperacetylation (FIG. 21).
# SDS-PAGE and Western blotting were performed as described previously with some modifications (Noel, E. S. et al. Organ-specific requirements for Hdac1 in liver and pancreas formation. Dev Biol 322, 237-250, (2008)). Proteins were separated on 18% SDS-PAGE gels. Membranes were incubated at 4° C. overnight with 1:1000 anti-hyperacetylated histone H4 antibody (06-946, Millipore) or 1:1000 anti-α-tubulin antibody (Sigma-Aldrich) in PBT containing 5% nonfat milk.
# [5] = system: myod1 (somites), fli1a (vasculature), ntla (notochord); assay: In situ hybridization for mesodermal markers myod1, fli1a, ntla in 10-somite embryos; assay type: in vivo, zebrafish
# Procedure: as §1, §2
SMILES,"lhx1a expansion class, 800 nM [1]","embryos with expanded lhx1a expression ([1]; 0.5% DMSO at 5 hpf, 3 μM PTBA at 8 hpf) [%]","responders at 0.8 µM ([1]; Danio rerio, 800 nM, read-out: embryos with expanded lhx1a expression (% expansion)) [%]","embryos with expanded lhx1a expression ([1]; injected with 200 pg DN-RARα mRNA, then 3 μM PTBA at 5 hpf) [%]","increase in the number of renal progenitor cells (renal progenitor cells; 3 μM, 10-somite Tg(lhx1a:EGFP)pt303 embryos) [fold]","HDAC activity, % of the control value ([2]; 5 mM compound, 10 μg HeLa extract) [%]",reduction of HDAC activity ([2]; millimolar concentrations) [%],"embryos with expanded pax2a expression ([3]; 3 μM, 10-somite embryos) [%]","pax2a expression at 24 hpf ([3]; 3 μM, treatment begun at 16.5 hpf (15 somites))","pax2a expression at 24 hpf ([3]; 3 μM, treatment initiated between 2 hpf and 14 hpf (10 somites))","effect on size of the kidney field / renal markers (in situ hybridization) ([3]; screen hits, data not shown)",podocyte viability (% of DMSO control) [4] [%],histone H4 hyperacetylation (histone H4 acetylation),embryos with unchanged fli1a expression ([5]; 3 μM) [%],"embryos with decreased myod1 expression ([5]; 3 μM PTBA (slightly decreased), 25 μM PBA, 200 nM TSA) [%]","embryos with increased ntla expression ([5]; 3 μM PTBA, 25 μM PBA) [%]","effective dose for the renal progenitor assay ([1]; zebrafish, in vivo) [nM]","lowest dose at which expansion of the renal progenitor cell population starts to be seen (renal progenitor cells; lhx1a:EGFP transgene, data not shown) [nM]"
"O=C(O)CCCSc1ccccc1 [PTBA, 4-(phenylthio)butanoic acid]",+/−,97,< 25,19,2.4,30,70,95,no kidney field expansion,expanded pax2a expression,appeared to expand the expression of some renal markers,≥ 50,hyperacetylation was observed,97,95,88,–,–
"COC(=O)CCCSc1ccccc1 [UPHD-00025, methyl 4-(phenylsulfanyl) butanoate]",+/−,–,–,–,–,–,–,–,–,–,–,–,–,–,–,–,~800,600
